Test results as given in BigSolDB 2.1.

O=C1c2ccccc2C(=O)N1O
solubility (mole fraction)
Settings	278.15 K	283.15 K	288.15 K	293.15 K	298.15 K	303.15 K	308.15 K	313.15 K	318.15 K	323.15 K
in 1,4-dioxane	–	–	0.0181	0.0204	0.0231	0.0255	0.0286	0.0319	0.0354	0.0393
in 2-ethoxyethanol	0.016	0.0182	0.0207	0.0233	0.026	0.0294	0.0327	0.0364	0.0404	0.0447
in 2-methoxyethanol	0.0254	0.028	0.0311	0.0346	0.0381	0.0421	0.0466	0.051	0.056	0.062
in acetone	0.00744	0.00861	0.00981	0.0111	0.0126	0.0144	0.0161	0.0186	0.0202	0.0222
in acetonitrile	0.00232	0.00268	0.00312	0.0036	0.00414	0.00476	0.00543	0.00618	0.00701	0.0079
in ethanol	0.00307	0.00366	0.00442	0.00526	0.00614	0.00729	0.00855	0.01	0.0117	0.0138
in ethyl acetate	0.00214	0.00252	0.00301	0.00353	0.00399	0.00465	0.00541	0.0062	0.00705	0.00807
in methanol	0.00354	0.00412	0.00484	0.00566	0.00657	0.0078	0.00903	0.0105	0.0123	0.0143
in methyl acetate	0.00303	0.00342	0.00394	0.00462	0.00528	0.00618	0.00696	0.00794	0.00908	0.0104
in n-propanol	0.00214	0.00259	0.00321	0.00388	0.00467	0.00568	0.00688	0.00834	0.00992	0.0119
in n-propyl acetate	0.0017	0.00202	0.00235	0.00281	0.00329	0.00381	0.00442	0.00512	0.00594	0.00679
